Measured values reported in patent publication US20020122795A1, “Compositions containing gangliosides for use in the treatment of skin disorders” (priority 2000, published 2002).

Assays:
Integrin avb3 = Integrin avb3 (Homo sapiens, UniProt P05106+P06756); assay: Binding of ganglioside to integrin avb3
adhesion to vitronectin = assay: Adhesion to vitronectin; format: cell-based
Excerpt: (§1) The ganglioside specifically interacts through carbohydrate moieties, with preference for the a5 subunit of the a5b1. […] Although any interaction between ganglioside and integrin b1 is much weaker, GT1b is able to bind b1 and, by doing so, inhibits b1 phosphorylation and serine/threonine phosphorylation.

[1] = tested on: keratinocytes and keratinocyte-derived cells; assay: Adhesion of keratinocytes and keratinocyte-derived cells to fibronectin; format: cell-based; conditions: fibronectin substrate
Excerpt: (§2) Keratinocyte motility on a fibronectin substrate is critical in the reepithelialization of healing wounds, and in the spread of cutaneous malignancy. We discovered that gangliosides GT1b and GD3 inhibit the adhesion to and migration of keratinocytes and keratinocyte-derived cells on fibronectin (See, Paller, A. S., et al., J. Invest. Dermatol., 105:237-242 (1995); Sung, C-C., et al., Exp. Cell Res., 239:311-319 (1998); Wang, X-Q, et al., J. Biol. Chem., 276(48):44504-44511 (2001) each incorporated by reference). Conversely, endogenous depletion of gangliosides through sialidase gene modulation leads to increased adhesion of the cells to fibronectin and vitronection. Gangliosides also trigger the apoptosis of keratinocytes when plated on a fibronectin matrix.

[2] = tested on: keratinocytes and keratinocyte-derived cells; assay: Migration of keratinocytes and keratinocyte-derived cells on fibronectin; format: cell-based; conditions: fibronectin substrate
Excerpt: as §2

FAK = assay: Phosphorylation of FAK; format: cell-based
Excerpt: as §1

integrin-linked kinase = assay: Phosphorylation of integrin-linked kinase; format: cell-based
Excerpt: as §1

keratinocyte a5b1 = biological target: T1, keratinocyte a5b1 (Homo sapiens, UniProt P05556+P08648); assay: Direct interaction of ganglioside with keratinocyte a5b1; format: binding; conditions: through carbohydrate moieties
T1 construct: endogenous in cells; host or cells: keratinocytes
T1 sequence (P08648 42-894 limits assumed): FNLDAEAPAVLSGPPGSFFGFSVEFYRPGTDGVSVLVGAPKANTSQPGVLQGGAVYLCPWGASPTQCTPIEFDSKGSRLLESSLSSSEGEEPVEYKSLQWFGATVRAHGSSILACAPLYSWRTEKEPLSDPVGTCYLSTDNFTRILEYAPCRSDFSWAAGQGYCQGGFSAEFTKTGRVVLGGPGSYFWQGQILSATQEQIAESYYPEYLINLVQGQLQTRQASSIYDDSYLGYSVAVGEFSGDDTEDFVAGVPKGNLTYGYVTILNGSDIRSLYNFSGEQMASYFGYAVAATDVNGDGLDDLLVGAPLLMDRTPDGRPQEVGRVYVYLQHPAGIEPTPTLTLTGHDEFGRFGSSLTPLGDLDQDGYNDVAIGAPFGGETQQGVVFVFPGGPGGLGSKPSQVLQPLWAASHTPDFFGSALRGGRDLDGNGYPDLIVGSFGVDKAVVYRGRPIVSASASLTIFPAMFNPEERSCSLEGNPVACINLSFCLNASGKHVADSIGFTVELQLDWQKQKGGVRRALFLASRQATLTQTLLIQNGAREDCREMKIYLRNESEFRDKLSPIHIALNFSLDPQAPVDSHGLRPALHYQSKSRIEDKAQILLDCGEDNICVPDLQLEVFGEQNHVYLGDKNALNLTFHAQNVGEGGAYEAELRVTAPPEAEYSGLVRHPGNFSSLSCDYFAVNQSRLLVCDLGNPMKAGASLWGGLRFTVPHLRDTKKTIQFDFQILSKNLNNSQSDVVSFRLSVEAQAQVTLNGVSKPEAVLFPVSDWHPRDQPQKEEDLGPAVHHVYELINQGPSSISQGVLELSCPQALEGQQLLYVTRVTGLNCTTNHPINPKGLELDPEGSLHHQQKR
T1 sequence (P08648 895-1049 limits assumed): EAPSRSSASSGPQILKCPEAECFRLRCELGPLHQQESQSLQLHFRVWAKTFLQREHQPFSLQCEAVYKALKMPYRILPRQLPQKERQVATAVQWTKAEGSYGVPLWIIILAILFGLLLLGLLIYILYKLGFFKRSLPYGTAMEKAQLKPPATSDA
T1 sequence (P05556 21-798): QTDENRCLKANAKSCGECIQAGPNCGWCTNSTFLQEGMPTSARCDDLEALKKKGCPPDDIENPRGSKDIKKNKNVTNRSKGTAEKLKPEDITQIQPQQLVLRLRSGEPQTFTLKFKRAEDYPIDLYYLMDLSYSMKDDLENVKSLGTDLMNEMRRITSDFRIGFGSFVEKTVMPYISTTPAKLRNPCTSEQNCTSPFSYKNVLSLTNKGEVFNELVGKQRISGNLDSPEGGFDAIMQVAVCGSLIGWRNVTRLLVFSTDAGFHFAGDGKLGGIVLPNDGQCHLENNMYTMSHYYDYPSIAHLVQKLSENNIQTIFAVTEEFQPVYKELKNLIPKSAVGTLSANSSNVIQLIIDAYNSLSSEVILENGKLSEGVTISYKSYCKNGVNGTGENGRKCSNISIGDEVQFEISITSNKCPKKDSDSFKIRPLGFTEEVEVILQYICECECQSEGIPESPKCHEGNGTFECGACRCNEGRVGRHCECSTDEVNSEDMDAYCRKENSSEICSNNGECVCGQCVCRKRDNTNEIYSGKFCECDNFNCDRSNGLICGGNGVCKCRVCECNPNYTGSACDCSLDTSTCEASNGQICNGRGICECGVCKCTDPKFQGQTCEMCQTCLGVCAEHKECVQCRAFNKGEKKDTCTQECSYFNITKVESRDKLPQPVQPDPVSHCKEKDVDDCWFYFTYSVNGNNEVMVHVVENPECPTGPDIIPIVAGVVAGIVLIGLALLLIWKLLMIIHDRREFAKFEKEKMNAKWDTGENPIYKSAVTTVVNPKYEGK
Excerpt: as §1

MMP-2 = MMP-2 expression and activity in keratinocyte-derived SCC12 cells; format: cell-based
Experimental: (§3) In contrast, inhibitors of protein kinase C (PKC) decrease the expression of TIMP-1 in SCC12 cells without altering MMP-9 expression. […] When both activators of PKC and gangliosides GT1b or GD3 are incubated together with the SCC12 cells, no change in the expression or activity of MMP-2 is noted. These studies provide evidence that more highly sialylated gangliosides modulate MMP-2 expression and activity in keratinocytes through a mechanism that involves suppression of the PKC signaling pathway.

TIMP-1 = TIMP-1 expression in keratinocyte-derived cells; format: cell-based
Experimental: as §3

skin cells = assay: Proliferation of skin cells; format: cell-based
Excerpt: One manifestation of basal cell and squamous cell cancers of the skin, psoriasis, and genetic disorders of skin overgrowth, such as certain forms of ichthyosis, is excessive proliferation of skin. In our experiments, we have noted that alterations in ganglioside content, whether by pharmacologic manipulation or endogenous alteration through gene therapy, also affect the growth of skin cells. […] We have now determined that a decrease in the same gangliosides would increase the proliferation of skin cells; in fact, we have determined that transfection of a sialidase gene that cleaves the sialic acid group(s) from all gangliosides results in total ganglioside depletion, and leads to increased proliferation of skin cells. […] We believe that a number of other gangliosides have similar effects, as described below, and could be used in therapeutic treatments.

PI3 kinase = assay: Phosphorylation of PI3 kinase (EGF signalling pathway); format: cell-based
Excerpt: (§4) The mechanism for the overgrowth of skin cells depleted of gangliosides and for the inhibition of growth of skin cells with increased ganglioside GM3 is decreased availability of the epidermal growth factor receptor for binding to its ligands (epidermal growth factor and transforming growth factor-α). […] Also affected are downstream components in the epidermal growth factor signaling transduction pathway, e.g. GM3 downregulates the phosphorylation of MAP kinase and PI3 kinase.

[3] = biological target: T2, epidermal growth factor receptor (Homo sapiens, UniProt P00533); assay: Direct binding of ganglioside to the epidermal growth factor receptor in keratinocytes
T2 construct: epidermal growth factor receptor in keratinocytes; endogenous in cells; host or cells: keratinocytes
Excerpt: as §4

MAP kinase = assay: Phosphorylation of MAP kinase (EGF signalling pathway); format: cell-based
Excerpt: as §4

MMP-9 = MMP-9 expression and activity in keratinocyte-derived cells; format: cell-based
Experimental: as §3

[4] = tested on: explant cultures from patients with psoriasis; assay: Attachment of explant cultures from patients with psoriasis; format: cell-based
Excerpt: The interaction of a5b1 and fibronectin is considered critical for embryonic development of skin, healing of wounds and spread of cutaneous malignancies. In addition, it is known in the art that cells from patients with psoriasis have shown increased adherence to fibronectin and a decreased ability to undergo apoptosis. […] Integrin avb3 plays a vital role in the development and proliferation of blood vessels in skin; increased activity leads to neovascularization, while inhibition can inhibit new vessel formation. Thus, an increase in more complex skin gangliosides, particularly GT1b, may be novel agents for treating psoriasis or in inhibiting vascular-dependent processes, such as the rapid growth of hemangiomas in infants. In contrast, depletion of gangliosides (e.g., through increased local sialidase activity) may encourage wound healing, through increasing the migration of keratinocytes, increasing keratinocyte proliferation, and encouraging angiogenesis. Thus, the invention includes administering gangliosides including but not limited to GT1b and GD3, and other agents that affect the amount and action of these gangliosides, to control fibronectin interactions.

integrin b1 [5] = biological target: T3, integrin b1 (Homo sapiens, UniProt P05556); assay: Binding of ganglioside to integrin b1
T3 sequence (P05556 21-798): as above
T3 sequence (P08648 42-894 partner limits assumed): as the sequence (P08648 42-894 limits assumed) above
T3 sequence (P08648 895-1049 partner limits assumed): as the sequence (P08648 895-1049 limits assumed) above
Excerpt: as §1

integrin b1 [6] = biological target: T3, integrin b1; assay: Phosphorylation of integrin b1; format: cell-based
Excerpt: as §1

TIMP-2 = TIMP-2 expression in keratinocyte-derived SCC12 cells; format: cell-based
Experimental: as §3

[7] = ganglioside incubated together with activators of PKC, SCC12 cells
[8] = keratinocyte-derived SCC12 cells
[9] = pharmacologic addition to normal keratinocyte-derived cells

Sequence of Integrin avb3 (P06756 31-889 limits assumed): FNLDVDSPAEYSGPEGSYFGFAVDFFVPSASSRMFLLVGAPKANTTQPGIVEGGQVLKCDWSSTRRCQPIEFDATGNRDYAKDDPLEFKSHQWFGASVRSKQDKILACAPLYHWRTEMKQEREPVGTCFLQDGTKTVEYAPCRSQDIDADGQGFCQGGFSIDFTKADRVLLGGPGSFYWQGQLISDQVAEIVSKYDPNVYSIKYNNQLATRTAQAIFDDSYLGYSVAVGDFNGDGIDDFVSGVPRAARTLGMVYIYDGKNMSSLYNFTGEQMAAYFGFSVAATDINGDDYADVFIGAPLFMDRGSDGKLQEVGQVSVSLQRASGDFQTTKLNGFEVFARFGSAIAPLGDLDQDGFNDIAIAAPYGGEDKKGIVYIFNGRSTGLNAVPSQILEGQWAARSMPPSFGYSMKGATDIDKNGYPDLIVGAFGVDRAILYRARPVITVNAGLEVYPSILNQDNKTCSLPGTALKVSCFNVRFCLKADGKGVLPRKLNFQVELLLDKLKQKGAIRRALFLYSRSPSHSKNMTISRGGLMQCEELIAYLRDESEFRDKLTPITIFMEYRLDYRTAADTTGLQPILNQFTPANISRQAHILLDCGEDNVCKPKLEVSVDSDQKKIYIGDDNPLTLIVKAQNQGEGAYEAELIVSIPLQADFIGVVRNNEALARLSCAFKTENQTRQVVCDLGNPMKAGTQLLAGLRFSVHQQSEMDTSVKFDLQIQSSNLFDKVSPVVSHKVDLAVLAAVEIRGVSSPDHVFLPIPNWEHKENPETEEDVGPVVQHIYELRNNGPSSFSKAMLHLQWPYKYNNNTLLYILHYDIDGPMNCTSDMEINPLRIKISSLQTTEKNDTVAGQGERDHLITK
Sequence of Integrin avb3 (P06756 891-1048 limits assumed): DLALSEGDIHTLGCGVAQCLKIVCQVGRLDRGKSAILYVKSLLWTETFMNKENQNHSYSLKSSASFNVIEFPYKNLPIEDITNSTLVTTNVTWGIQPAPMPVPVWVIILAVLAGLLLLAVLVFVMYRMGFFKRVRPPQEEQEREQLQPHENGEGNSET
Sequence of Integrin avb3 (P05106 27-788): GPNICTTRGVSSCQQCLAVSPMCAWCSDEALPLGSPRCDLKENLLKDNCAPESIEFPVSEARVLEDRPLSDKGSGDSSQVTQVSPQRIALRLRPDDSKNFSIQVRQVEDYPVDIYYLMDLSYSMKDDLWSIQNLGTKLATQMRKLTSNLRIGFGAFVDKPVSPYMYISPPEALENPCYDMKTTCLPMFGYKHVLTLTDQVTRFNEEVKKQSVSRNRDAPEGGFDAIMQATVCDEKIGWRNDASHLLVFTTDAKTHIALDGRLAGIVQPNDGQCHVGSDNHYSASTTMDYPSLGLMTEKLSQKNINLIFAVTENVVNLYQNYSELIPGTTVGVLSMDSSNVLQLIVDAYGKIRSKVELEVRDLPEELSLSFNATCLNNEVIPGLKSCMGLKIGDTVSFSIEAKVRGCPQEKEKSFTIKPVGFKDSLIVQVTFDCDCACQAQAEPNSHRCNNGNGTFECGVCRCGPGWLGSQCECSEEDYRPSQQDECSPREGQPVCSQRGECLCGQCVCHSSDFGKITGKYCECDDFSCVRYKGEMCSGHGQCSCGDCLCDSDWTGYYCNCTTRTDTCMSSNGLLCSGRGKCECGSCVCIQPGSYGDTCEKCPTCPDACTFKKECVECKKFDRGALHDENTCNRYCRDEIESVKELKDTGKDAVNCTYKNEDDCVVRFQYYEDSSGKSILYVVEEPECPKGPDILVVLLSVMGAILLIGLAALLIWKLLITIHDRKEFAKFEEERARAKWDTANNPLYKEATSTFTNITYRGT

GD2
binding to integrin avb3 (Integrin avb3): binds | adhesion to vitronectin (adhesion to vitronectin): limit the adhesion

GD3
adhesion of keratinocytes and keratinocyte-derived cells to fibronectin [1]: inhibit | migration of keratinocytes and keratinocyte-derived cells on fibronectin [2]: inhibit | binding to integrin avb3 (Integrin avb3): binds | phosphorylation of FAK (FAK): inhibition of phosphorylation | phosphorylation of integrin-linked kinase (integrin-linked kinase): inhibition of phosphorylation | interaction with keratinocyte a5b1 (keratinocyte a5b1): direct interaction | activity of MMP-2 (MMP-2; [7]): no change | expression of MMP-2 (MMP-2; [7]): no change | activity of MMP-2 (MMP-2; [8]): inhibit | expression of MMP-2 (MMP-2; [8]): inhibit | adhesion to vitronectin (adhesion to vitronectin): limit the adhesion

GM3
expression of TIMP-1 (TIMP-1; [9]): marked suppression | proliferation of skin cells (skin cells; pharmacologic addition of ganglioside): inhibit the proliferation | phosphorylation of PI3 kinase (PI3 kinase): downregulates | binding to the carbohydrate moieties of the epidermal growth factor receptor [3]: direct binding | phosphorylation of MAP kinase (MAP kinase): downregulates | activity of MMP-9 (MMP-9; [9]): without affecting | expression of MMP-9 (MMP-9; [9]): marked suppression

GT1b
attachment of explant cultures [4]: clear inhibition of attachment | expression of TIMP-1 (TIMP-1; [9]): marked suppression | adhesion of keratinocytes and keratinocyte-derived cells to fibronectin [1]: inhibit | migration of keratinocytes and keratinocyte-derived cells on fibronectin [2]: inhibit | binding to integrin b1 (integrin b1 [5]): able to bind | b1 phosphorylation (integrin b1 [6]): inhibits | serine/threonine phosphorylation (integrin b1 [6]; on binding of b1): inhibits | phosphorylation of FAK (FAK): inhibition of phosphorylation | phosphorylation of integrin-linked kinase (integrin-linked kinase): inhibition of phosphorylation | activity of MMP-9 (MMP-9; [9]): without affecting | expression of MMP-9 (MMP-9; [9]): marked suppression | interaction with keratinocyte a5b1 (keratinocyte a5b1): direct interaction | activity of MMP-2 (MMP-2; [7]): no change | expression of MMP-2 (MMP-2; [7]): no change | activity of MMP-2 (MMP-2; [8]): inhibit | expression of MMP-2 (MMP-2; [8]): inhibit

PIP3 [reference compound]
TIMP-2 expression (TIMP-2): only slightly increase | activity of MMP-2 (MMP-2; [8]): increased | expression of MMP-2 (MMP-2; [8]): increased

concanavalin A [reference compound]
TIMP-2 expression (TIMP-2): only slightly increase | activity of MMP-2 (MMP-2; [8]): increased | expression of MMP-2 (MMP-2; [8]): increased

epidermal growth factor [reference compound]
expression of TIMP-1 (TIMP-1; SCC12 cells): does not affect | proliferation of skin cells (skin cells; added to sialidase-transfected (ganglioside-depleted) cells in culture): further accentuated | activity of MMP-9 (MMP-9; SCC12 cells): increases its activity | expression of MMP-9 (MMP-9; SCC12 cells): further increased
